# Test results reported in PMC7912516, “New Antimicrobials Based on the Adarotene Scaffold with Activity against Multi-Drug Resistant Staphylococcus aureus and Vancomycin-Resistant Enterococcus” (Antibiotics, 2021).
# “And” between values parts separate entries of the source, which are not always exact repeats. Identical values can stand only once. Like-named read-outs stand apart in the source and are kept apart here.
# Tests used:
# [1] = system: methicillin-resistant S. aureus (MRSA) strain MW2; set-up: method as in PMID 29590091; details: ref [12]; cited from earlier work
# [2] = system: S. aureus strain 1 (MDR clinical isolate, MRSA, mecA positive); assay: MIC/MBC by broth micro-dilution (CLSI); assay type: cell-based, Staphylococcus aureus; details: S. aureus Strain 1; for MBC: in square brackets
# Method: (§1) The compounds were initially tested with a methicillin-resistant S. aureus and an E. faecalis clinical isolates (details in the experimental section), two MDR strains according to definition by Magiorakos et al.. The activity of studied compounds was assessed by broth micro-dilution method. Minimal Inhibitory Concentration (MIC), and Minimal Bactericidal Concentration (MBC) were determined and possible bacteriostatic or bactericidal activity was also investigated.
# (§2) MICs and MBCs were determined according to CLSI (Clinical and Laboratory Standards Institute) guidelines, in triplicate. Results are shown as modal values of the three replicates. According to MIC and MBC data, the killing rate was calculated as the ratio between MBC and MIC on which basis it is possible to define the compounds tested as bactericides (killing rate = 1–4), or bacteriostatic (killing rate > 4).
# (§3) Preparation of the solution containing molecules: for each molecule to be tested, solutions were made as DMSO stock, with a concentration of 2.560 mg/mL. Scalar dilutions were than prepared directly on plates by using Mueller Hinton Broth (MHB) as a growth medium (range 0.5–256 µg/mL).
# (§4) Bacterial suspension preparation: cryostrains preserved at −80 °C were recovered by incubation in growth medium (Brain Heart Infusion Broth, BHI) for 24–48 h at 35 ± 2 °C followed by passages in agar growth medium (Columbia Blood Agar). Colonies with less than 30 h were suspended in MHB with the purpose to prepare a bacterial suspension with a turbidity of 0.5 MF, containing approximately 1.5 × 10^8 cfu/mL. This suspension was than diluted in MHB until reaching a final concentration of 5 × 10^4 CFU/well. Simultaneously, check in broth-microdilution only with solvent (in order to exclude that the effect of growth inhibition might be due to the drug solution solvent), positive growth control in absence of DMSO and drug, and negative purity control only with injection broth were performed.
# S. aureus strain 1 (collection, MDR): mecA positive; MRSA, β-lactamase positive, resistant to ciprofloxacin, gentamicin and erythromycin.
# [3] = system: E. faecalis strain 1 (MDR clinical isolate); assay: MIC/MBC by broth micro-dilution (CLSI); assay type: cell-based, Enterococcus faecalis; details: for MBC: in square brackets
# Method: as §1, §2, §3, §4
# E. faecalis strain 1 (collection, MDR) vanA/B negative; aminoglycosides high-level resistant to aminoglycosides (gentamicin and streptomycin) and ampicillin.
# [4] = system: tumor cell line H-460 NCI; assay: Cytotoxic activity, inhibition of cell growth; assay type: cell-based; details: Homo sapiens, NCI-H460; H-460 cell line, unpublished results; ± SD; read-out: IC50 (concentration required for 50% inhibition of cell growth)
# From the text: Table 1 Antimicrobial activity of adarotene derivatives 1–20 against MDR clinical strains of S. aureus and E. faecalis and cytotoxic activity. | column: IC50 ^a (µM)
# [5] = modal value of three replicates
# [6] = Staphylococcus aureus, MRSA, modal value of three replicates, read-out: MIC
# [7] = Staphylococcus aureus, MRSA, modal value, read-out: MIC
# [8] = Staphylococcus aureus, MRSA, modal value
# [9] = Enterococcus faecalis, modal value
# [10] = Enterococcus faecalis, modal value of three replicates, read-out: MIC
# [11] = Enterococcus faecalis, modal value, read-out: MIC
"MIC [2, 5] [µg/mL]","MIC [2, 6] [µg/mL]","MIC [2, 7] [µM]","MIC [3, 10] [µg/mL]","MIC [3, 11] [µM]","MIC [3, 5] [µg/mL]",SMILES,activity against MRSA strain MW2 [1],"MBC [2, 8]","MBC [3, 9]",IC50 [4] [µM]
,,,,,,O=C(O)c1ccc(-c2ccc3cc(O)c(C45CC6CC(CC(C6)C4)C5)cc3c2)cc1 [CD1530],exhibit activity,,,
,,,,,,O=C(O)c1ccc2cc(-c3ccc(O)c(C45CC6CC(CC(C6)C4)C5)c3)ccc2c1 [CD437],exhibit activity,,,
2,2 to 4,5,1 to 4,2,1,N#C/C(=C\c1ccc(-c2ccc(O)c(C34CC5CC(CC(C5)C3)C4)c2)cc1)C(=O)O [Compound 9],,4 µg/mL and 10 µM,4 µg/mL and 10 µM,> 10
,8,15,4,8,,O=C(O)/C=C/c1ccc(-c2cc(CNC(=O)Nc3ccccc3)c(O)c(C34CC5CC(CC(C5)C3)C4)c2)cc1 [Compound 14],,8 µg/mL and 15 µM,16 µg/mL and 31 µM,> 10
,32,50,128,201,,CCCCC/C=C\C/C=C\CCCCCCCC(=O)Oc1ccc(-c2ccc(/C=C/C(=O)O)cc2)cc1C12CC3CC(CC(C3)C1)C2 [Compound 3],,,,7.8 ± 0.7
